From US9708316B2 (BRISTOL-MYERS SQUIBB COMPANY, priority 2014, dated 2017)

Experiments:
HIS-TGFβR2 WT = HIS-TGFβR2 WT (Homo sapiens, UniProt P37173); test: HTRF probe-displacement assay, HIS-TGFβR2 WT; format: binding
HIS-TGFβR1 T204D = target: T1, HIS-TGFβR1 T204D (Homo sapiens, UniProt P36897, T204D); test: HTRF probe-displacement assay, HIS-TGFβR1 T204D; format: binding; settings: read-out: TGFβR1 (μM) IC50
T1 sequence (P36897 34-503 T204D): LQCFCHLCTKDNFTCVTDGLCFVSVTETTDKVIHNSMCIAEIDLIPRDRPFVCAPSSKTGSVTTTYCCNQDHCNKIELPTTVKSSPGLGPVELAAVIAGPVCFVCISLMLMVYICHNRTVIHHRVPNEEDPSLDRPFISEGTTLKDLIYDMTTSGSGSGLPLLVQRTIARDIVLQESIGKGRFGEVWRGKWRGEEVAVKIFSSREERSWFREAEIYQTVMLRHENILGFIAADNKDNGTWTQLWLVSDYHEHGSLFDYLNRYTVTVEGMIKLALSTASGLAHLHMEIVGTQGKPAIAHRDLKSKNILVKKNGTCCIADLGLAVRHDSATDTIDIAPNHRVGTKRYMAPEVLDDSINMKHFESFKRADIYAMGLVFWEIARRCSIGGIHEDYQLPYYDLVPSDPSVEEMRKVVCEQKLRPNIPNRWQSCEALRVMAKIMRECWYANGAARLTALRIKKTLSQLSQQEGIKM

Sequence of HIS-TGFβR2 WT (P37173 23-567): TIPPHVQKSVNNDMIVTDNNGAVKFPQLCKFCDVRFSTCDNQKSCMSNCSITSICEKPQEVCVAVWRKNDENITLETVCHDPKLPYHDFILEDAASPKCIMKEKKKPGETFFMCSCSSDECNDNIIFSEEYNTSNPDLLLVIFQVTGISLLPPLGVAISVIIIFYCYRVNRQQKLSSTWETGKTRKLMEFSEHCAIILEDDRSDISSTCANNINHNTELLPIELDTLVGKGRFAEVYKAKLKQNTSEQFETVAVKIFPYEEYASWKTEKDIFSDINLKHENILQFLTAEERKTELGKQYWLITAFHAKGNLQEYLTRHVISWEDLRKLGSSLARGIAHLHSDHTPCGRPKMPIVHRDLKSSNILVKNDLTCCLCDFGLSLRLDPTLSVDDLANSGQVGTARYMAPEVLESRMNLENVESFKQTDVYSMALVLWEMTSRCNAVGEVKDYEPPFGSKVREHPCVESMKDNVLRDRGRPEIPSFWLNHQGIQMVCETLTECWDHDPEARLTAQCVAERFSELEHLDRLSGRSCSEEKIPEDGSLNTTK

Row | SMILES | IC50 (HIS-TGFβR2 WT) | IC50 (HIS-TGFβR1 T204D)
1 | CC(=O)Nc1cc(-c2[nH]c3cccnc3c2-c2ccc(Cl)c(C)n2)ccn1 [Example 33, N-{4-[3-(5-Chloro-6-methylpyridin-2-yl)-1H-pyrrolo[3,2-b]pyridin-2-yl]pyridin-2-yl}acetamide] | > 15 µM | 0.005 µM
2 | CC(=O)Nc1cc(-c2[nH]c3cccnc3c2-c2ccc3[nH]ccc3c2)ccn1 [Example 20, N-{4-[3-(1H-Indol-5-yl)-1H-pyrrolo[3,2-b]pyridin-2-yl]pyridin-2-yl}acetamide] | 1.69 µM | 0.005 µM
3 | CC(=O)Nc1cc(-c2[nH]c3cccnc3c2-c2ccc(C#N)nc2)ccn1 [Example 12, N-{4-[3-(6-Cyanopyridin-3-yl)-1H-pyrrolo[3,2-b]pyridin-2-yl]pyridin-2-yl}acetamide] | 1.31 µM | 0.058 µM
4 | COc1ncc(-c2c(-c3ccnc(NC(C)=O)c3)[nH]c3cccnc23)cn1 [Example 27, N-{4-[3-(2-Methoxypyrimidin-5-yl)-1H-pyrrolo[3,2-b]pyridin-2-yl]pyridin-2-yl}acetamide] | > 15 µM | 0.72 µM
5 | CC(=O)Nc1cc(-c2[nH]c3cccnc3c2-c2cc(C)c(F)cn2)ccn1 [Example 24, N-{4-[3-(5-Fluoro-4-methylpyridin-2-yl)-1H-pyrrolo[3,2-b]pyridin-2-yl]pyridin-2-yl}acetamide] | 0.21 µM | 0.018 µM
6 | CC(=O)Nc1cc(-c2[nH]c3cccnc3c2-c2cc(C)ccn2)ccn1 [Example 31, N-{4-[3-(4-Methylpyridin-2-yl)-1H-pyrrolo[3,2-b]pyridin-2-yl]pyridin-2-yl}acetamide] | 0.66 µM | 0.019 µM
7 | COC(=O)Nc1cc(-c2[nH]c3cc(OC)cnc3c2-c2ccc(OC)cn2)ccn1 [Example 124, Methyl N-{4-[6-methoxy-3-(5-methoxypyridin-2-yl)-1H-pyrrolo[3,2-b]pyridin-2-yl]pyridin-2-yl}carbamate] | 12.8 µM | 0.001 µM
8 | COc1ccc(-c2c(-c3ccnc(NC(C)=O)c3)[nH]c3cc(Cl)cnc23)nc1C [Example 170, N-(4-(6-Chloro-3-(5-methoxy-6-methylpyridin-2-yl)-1H-pyrrolo[3,2-b]pyridin-2-yl)pyridin-2-yl)acetamide] | > 15 µM | 0.032 µM
9 | COc1ccc(-c2c(-c3ccnc(NC(C)=O)c3)[nH]c3cc(N4CCC[C@@H]4CO)cnc23)nc1 [Example 163, (R)-N-(4-(6-(2-(Hydroxymethyl)pyrrolidin-l-yl)-3-(5-methoxypyridin-2-yl)-1H-pyrrolo[3,2-b]pyridin-2-yl)pyridin-2-yl)acetamide] | > 15 µM | 0.0304 µM
10 | CC(=O)Nc1cc(-c2[nH]c3nccnc3c2-c2cccc(Cl)n2)ccn1 [Example 55, N-{4-[7-(6-Chloropyridin-2-yl)-5H-pyrrolo[2,3-b]pyrazin-6-yl]pyridin-2-yl}acetamide] | 0.069 µM | 0.003 µM
11 | O=C(CN1CCOCC1)Nc1cc(-c2[nH]c3cc(Cl)cnc3c2-c2ccc(F)cn2)ccn1 [Example 74, N-{4-[6-Chloro-3-(5-fluoropyridin-2-yl)-1H-pyrrolo[3,2-b]pyridin-2-yl]pyridin-2-yl}-2-(morpholin-4-yl)acetamide] | 2.6 µM | 0.001 µM
12 | CC(=O)Nc1cc(-c2[nH]c3c(CF)ccnc3c2-c2cccc(C(F)F)n2)ccn1 [Example 150, N-(4-{3-[6-(Difluoromethyl)pyridin-2-yl]-7-(fluoromethyl)-1H-pyrrolo[3,2-b]pyridin-2-yl}-pyridin-2-yl)acetamide] | 6.08 µM | 0.001 µM
13 | C=Cc1ccnc2c(-c3cccc(C(F)F)n3)c(-c3ccnc(NC(C)=O)c3)[nH]c12 [Example 127, N-(4-{3-[6-(Difluoromethyl)pyridin-2-yl]-7-ethenyl-1H-pyrrolo[3,2-b]pyridin-2-yl}pyridin-2-yl)acetamide] | 6.65 µM | 0.001 µM

More lines, now with the values ahead:

Row | IC50 (HIS-TGFβR2 WT) | IC50 (HIS-TGFβR1 T204D) | SMILES
14 | 0.017 µM | 0.003 µM | COc1ccc(-c2c(-c3ccnc(NC(C)=O)c3)[nH]c3c(C(O)C(C)C)ccnc23)cn1 (centres unmarked) [Example 300, N-(4-(7-(1-Hydroxy-2-methylpropyl)-3-(6-methoxypyridin-3-yl)-1H-pyrrolo[3,2-b]pyridin-2-yl)pyridin-2-yl)acetamide]
15 | 4.06 µM | 0.0014 µM | CC(=O)Nc1cc(-c2[nH]c3c(C(C)F)ccnc3c2-c2cccc(C(F)F)n2)ccn1 (centres unmarked) [Example 233, N-(4-(3-(6-(Difluoromethyl)pyridin-2-yl)-7-(1-fluoroethyl)-1H-pyrrolo[3,2-b]pyridin-2-yl)pyridin-2-yl)acetamide]
16 | 1.05 µM | 0.004 µM | CC(=O)Nc1cc(-c2[nH]c3c(C(C)O)ccnc3c2-c2ccc(F)cn2)ccn1 (centres unmarked) [Example 265, N-(4-(3-(5-Fluoropyridin-2-yl)-7-(1-hydroxyethyl)-1H-pyrrolo[3,2-b]pyridin-2-yl)pyridin-2-yl)acetamide]
17 | > 15 µM | 0.065 µM | CC(=O)Nc1cc(-c2[nH]c3cc(Cl)cnc3c2-c2ccc(OC(C)C)cn2)ccn1 [Example 254, N-(4-(6-Chloro-3-(5-isopropoxypyridin-2-yl)-1H-pyrrolo[3,2-b]pyridin-2-yl)pyridin-2-yl)acetamide]
18 | 0.118 µM | 0.0061 µM | COc1ccc(-c2c(-c3ccnc(NC(C)=O)c3)[nH]c3c(C(F)F)ccnc23)cn1 [Example 213, N-(4-(7-(Difluoromethyl)-3-(6-methoxypyridin-3-yl)-1H-pyrrolo[3,2-b]pyridin-2-yl)pyridin-2-yl)acetamide]
19 | 7.82 µM | 0.003 µM | O=C(CN1CCC(O)CC1)Nc1cc(-c2[nH]c3cc(Cl)cnc3c2-c2ccc(F)cn2)ccn1 [Example 244, N-(4-(6-Chloro-3-(5-fluoropyridin-2-yl)-1H-pyrrolo[3,2-b]pyridin-2-yl)pyridin-2-yl)-2-(4-hydroxypiperidin-1-yl)acetamide]
20 | 0.038 µM | 0.002 µM | COc1ccc(-c2c(-c3ccnc(NC(C)=O)c3)[nH]c3c(C(C)(C)O)ccnc23)cn1 [Example 299, N-(4-(7-(2-Hydroxypropan-2-yl)-3-(6-methoxypyridin-3-yl)-1H-pyrrolo[3,2-b]pyridin-2-yl)pyridin-2-yl)acetamide]
21 | 0.016 µM | 0.002 µM | COc1cnc2c(-c3ccc(OC)nc3)c(-c3ccnc(NC(C)=O)c3)[nH]c2c1 [Example 285, N-(4-(6-Methoxy-3-(6-methoxypyridin-3-yl)-1H-pyrrolo[3,2-b]pyridin-2-yl)pyridin-2-yl)acetamide]
22 | 0.544 µM | 0.0012 µM | CC(=O)Nc1cc(-c2[nH]c3cc(C)cnc3c2-c2nc(C#N)cs2)ccn1 [Example 224, N-(4-(3-(4-Cyanothiazol-2-yl)-6-methyl-1H-pyrrolo[3,2-b]pyridin-2-yl)pyridin-2-yl)acetamide]
23 | 0.24 µM | 0.0104 µM | CC(=O)Nc1cc(-c2[nH]c3cccnc3c2-c2ccc(C#N)s2)ccn1 [Example 188, N-(4-(3-(5-Cyanothiophen-2-yl)-1H-pyrrolo[3,2-b]pyridin-2-yl)pyridin-2-yl)acetamide]
24 | 0.173 µM | 0.0014 µM | CC(=O)Nc1cc(-c2[nH]c3c(CO)ccnc3c2-c2nc(C)cs2)ccn1 [Example 214, N-(4-(7-(hydroxymethyl)-3-(4-methylthiazol-2-yl)-1H-pyrrolo[3,2-b]pyridin-2-yl)pyridin-2-yl)acetamide]
25 | > 15 µM | 0.005 µM | COc1ccc(-c2c(-c3ccnc(NC(C)=O)c3)[nH]c3c(OC)ccnc23)nc1 [Example 266, N-(4-(7-Methoxy-3-(5-methoxypyridin-2-yl)-1H-pyrrolo[3,2-b]pyridin-2-yl)pyridin-2-yl)acetamide]
26 | 0.176 µM | 0.0035 µM | CC(=O)Nc1cc(-c2[nH]c3cc(Cl)cnc3c2-c2nc(CO)cs2)ccn1 [Example 178, N-(4-(6-Chloro-3-(4-(hydroxymethyl)thiazol-2-yl)-1H-pyrrolo[3,2-b]pyridin-2-yl)pyridin-2-yl)acetamide]
27 | > 15 µM | 0.594 µM | CC(=O)Nc1cc(-c2[nH]c3c(C#N)ccnc3c2-c2nc(C)cs2)ccn1 [Example 240, N-(4-(7-Cyano-3-(4-methylthiazol-2-yl)-1H-pyrrolo[3,2-b]pyridin-2-yl)pyridin-2-yl)acetamide]
28 | > 15 µM | 0.001 µM | COc1ccc(-c2c(-c3ccnc(NC(=O)CN4CCN(CCO)CC4)c3)[nH]c3cc(Cl)cnc23)nc1 [Example 252, N-(4-(6-Chloro-3-(5-methoxypyridin-2-yl)-1H-pyrrolo[3,2-b]pyridin-2-yl)pyridin-2-yl)-2-(4-(2-hydroxyethyl)piperazin-1-yl)acetamide]
29 | 10.8 µM | 0.001 µM | CC(=O)Nc1cc(-c2[nH]c3cc(Cl)cnc3c2-c2cccc(C(F)F)n2)ccn1 [Example 171, N-(4-(6-Chloro-3-(6-(difluoromethyl)pyridin-2-yl)-1H-pyrrolo[3,2-b]pyridin-2-yl)pyridin-2-yl)acetamide]
30 | 1.21 µM | 0.0951 µM | COc1cc(-c2c(-c3ccnc(NC(C)=O)c3)[nH]c3cccnc23)ccn1 [Example 196, N-(4-(3-(2-Methoxypyridin-4-yl)-1H-pyrrolo[3,2-b]pyridin-2-yl)pyridin-2-yl)acetamide]
31 | 0.176 µM | 0.001 µM | COc1ccc(-c2c(-c3ccnc(NC(=O)CN4CCN(CCO)CC4)c3)[nH]c3cc(Cl)cnc23)cn1 [Example 235, N-(4-(6-Chloro-3-(6-methoxypyridin-3-yl)-1H-pyrrolo[3,2-b]pyridin-2-yl)pyridin-2-yl)-2-(4-(2-hydroxyethyl)piperazin-1-yl)acetamide]
